The values below come from ChEMBL document CHEMBL2434907, “Synthesis and SAR studies of benzimidazolone derivatives as histamine H3-receptor antagonists” (Bioorg Med Chem Lett, 2013).

Series [1] addresses Histamine H3 receptor (Cavia porcellus, UniProt Q9JI35). The series can be described thus: Displacement of [3H]-N-alpha-methyl histamine from histamine H3 receptor in guinea pig brain homogenates. The format is tissue-based. Background: Displacement assays read how much labelled ligand stays bound in the presence of the test substance.
For series [2], the target named is Cytochrome P450 3A4 (Homo sapiens, UniProt P08684). The series can be described thus: Inhibition of CYP3A4 in human liver microsomes. The class given is ADME, Microsome. Background: Liver microsomes are vesicles of endoplasmic reticulum, rich in cytochrome P450 enzymes.
Chain of Cytochrome P450 3A4 (P08684 whole entry): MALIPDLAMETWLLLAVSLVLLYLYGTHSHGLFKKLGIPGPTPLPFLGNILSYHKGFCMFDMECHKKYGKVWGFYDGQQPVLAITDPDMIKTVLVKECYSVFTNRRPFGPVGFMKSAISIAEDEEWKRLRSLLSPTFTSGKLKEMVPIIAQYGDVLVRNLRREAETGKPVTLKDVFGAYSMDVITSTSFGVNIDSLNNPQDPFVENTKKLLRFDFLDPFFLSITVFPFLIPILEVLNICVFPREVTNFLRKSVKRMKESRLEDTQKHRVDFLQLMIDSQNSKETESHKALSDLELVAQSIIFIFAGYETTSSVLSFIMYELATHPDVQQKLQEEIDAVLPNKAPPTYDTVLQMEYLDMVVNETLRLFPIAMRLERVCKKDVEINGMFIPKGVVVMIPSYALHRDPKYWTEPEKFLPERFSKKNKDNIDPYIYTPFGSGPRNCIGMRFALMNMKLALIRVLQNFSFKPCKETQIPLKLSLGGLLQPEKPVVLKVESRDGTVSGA
In series [3] the target is Cytochrome P450 2D6 (Homo sapiens, UniProt P10635). The series can be described thus: Inhibition of CYP2D6 in human liver microsomes. The class given is ADME, Microsome.
Chain of Cytochrome P450 2D6 (P10635 whole entry): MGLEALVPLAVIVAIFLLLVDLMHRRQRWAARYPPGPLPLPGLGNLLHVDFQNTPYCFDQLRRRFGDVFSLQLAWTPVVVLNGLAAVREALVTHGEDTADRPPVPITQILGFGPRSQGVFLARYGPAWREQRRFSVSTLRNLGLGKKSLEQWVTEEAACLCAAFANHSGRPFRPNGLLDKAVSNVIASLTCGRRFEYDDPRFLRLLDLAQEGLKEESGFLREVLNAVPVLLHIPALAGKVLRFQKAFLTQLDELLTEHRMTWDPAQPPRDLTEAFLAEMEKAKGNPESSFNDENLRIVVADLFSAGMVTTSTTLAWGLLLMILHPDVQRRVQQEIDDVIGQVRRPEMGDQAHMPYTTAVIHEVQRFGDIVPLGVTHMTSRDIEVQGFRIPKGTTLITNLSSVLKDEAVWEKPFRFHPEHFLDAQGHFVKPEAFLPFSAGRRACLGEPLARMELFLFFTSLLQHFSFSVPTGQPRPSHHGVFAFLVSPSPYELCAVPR
A short description of series [4]: Plasma concentration in Sprague-Dawley rat at 10 mg/kg, po after 6 hrs. More on the design: dose 10 mg/kg, route oral. The class given is ADME, organism-based.
Series [5] can be described thus: AUC in Sprague-Dawley rat at 10 mg/kg, po. The class given is ADME, organism-based. Also noted: dose 10 mg/kg, route oral. To be noted: plasma.

Chain of Histamine H3 receptor (Q9JI35 whole entry): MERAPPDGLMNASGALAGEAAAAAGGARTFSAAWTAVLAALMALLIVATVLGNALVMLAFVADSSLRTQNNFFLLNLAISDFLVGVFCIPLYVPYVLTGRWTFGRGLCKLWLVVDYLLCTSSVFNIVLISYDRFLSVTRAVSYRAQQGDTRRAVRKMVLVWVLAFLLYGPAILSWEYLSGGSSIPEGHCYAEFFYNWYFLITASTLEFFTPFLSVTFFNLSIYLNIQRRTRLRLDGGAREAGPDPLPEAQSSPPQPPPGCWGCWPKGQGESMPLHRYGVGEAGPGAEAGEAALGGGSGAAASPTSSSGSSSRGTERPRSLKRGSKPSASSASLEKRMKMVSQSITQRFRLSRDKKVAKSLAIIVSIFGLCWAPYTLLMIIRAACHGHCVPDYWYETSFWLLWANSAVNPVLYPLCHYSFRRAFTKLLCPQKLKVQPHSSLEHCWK

As a reminder, the Ki is the dissociation constant of the complex between target and ligand, obtained from inhibition or displacement. As for `CC(c1ccc(Cl)c(Cl)c1)n1c(=O)n(C2CCN(C(=O)C3CCN(Cc4ccnc(N)c4)CC3)CC2)c2ccccc21` (stereo unspecified), in series [1], the Ki is 0.077 µM.

In general, IC50 refers to the point on the concentration scale where inhibition reaches its midpoint. A higher IC50 goes with a need for much substance. `Nc1cc(CN2CCC(C(=O)N3CCC(n4c(=O)n(-c5ncccn5)c5cc(F)ccc54)CC3)CC2)ccn1`: the IC50 in series [2] and in series [3] was above 30 µM throughout.

`Nc1cc(CN2CCC(C(=O)N3CCC(n4c(=O)n(Cc5ccc(Cl)cc5)c5ccccc54)CC3)CC2)ccn1` showed a Ki in series [1] of 0.012 µM.

As for `Nc1cc(CN2CCC(C(=O)N3CCC(n4c(=O)[nH]c5ccccc54)CC3)CC2)ccn1`, the IC50 in series [2] and in series [3] was above 30 µM throughout. The molecule also registered a Ki in series [1] of 0.0006 µM.

As usually defined, the AUC is concentration integrated over time. As to `Nc1cc(CN2CCC(C(=O)N3CCC(n4c(=O)n(-c5cc(F)cc(F)c5)c5cc(F)ccc54)CC3)CC2)ccn1`, the half-inhibitory concentration (IC50) in series [2] and in series [3] was above 30 µM throughout. The concentration at 6 h in series [4] amounted to 1850 nM. For the same molecule, the AUC in series [5] worked out at 12.9 µM·h.

`Nc1cc(CN2CCC(C(=O)N3CCC(n4c(=O)n(C5CCCC5)c5cc(F)ccc54)CC3)CC2)ccn1`: the half-inhibitory concentration (IC50) is 22 µM in series [2] and above 30 µM in series [3]. This molecule showed a concentration at 6 h in series [4] of 200 nM. The AUC in series [5] was determined as 1.8 µM·h.

As for `Nc1cc(CN2CCC(C(=O)N3CCC(n4c(=O)n(-c5ccccn5)c5cc(F)ccc54)CC3)CC2)ccn1`, the IC50 in series [2] and in series [3] was above 30 µM in each case. The molecule also registered a concentration at 6 h in series [4] of 1200 nM. In series [5], this molecule displayed an area under the curve (AUC) of 10.9 µM·h.

As to `Nc1cc(CN2CCC(C(=O)N3CCC(n4c(=O)n(-c5ccc(F)c(F)c5)c5cc(F)ccc54)CC3)CC2)ccn1`, the IC50 in series [2] and in series [3] was above 30 µM each time. In series [4], this molecule gave a concentration at 6 h of 680 nM. The exposure (AUC) in series [5] was 5.1 µM·h.

As to `Nc1cc(CN2CCC(C(=O)N3CCC(n4c(=O)n(CC5CC5)c5cc(F)ccc54)CC3)CC2)ccn1`, the figures for the IC50 in series [2] and in series [3] were 30 µM and above 30 µM, respectively. The concentration at 6 h in series [4] stood at 260 nM. Besides, the AUC in series [5] was determined as 3.5 µM·h.

With `Nc1cc(CN2CCC(C(=O)N3CCC(n4c(=O)n(CCCC(F)(F)F)c5ccccc54)CC3)CC2)ccn1`, the half-maximal inhibitory concentration (IC50) in series [2] and in series [3] was above 30 µM throughout.

Turning to `COCCn1c(=O)n(C2CCN(C(=O)C3CCN(Cc4ccnc(N)c4)CC3)CC2)c2ccccc21`, the half-inhibitory concentration (IC50) in series [2] and in series [3] was above 30 µM in each case. The area under the curve (AUC) in series [5] was determined as 0.1 µM·h.

Turning to `Nc1cc(CN2CCC(C(=O)N3CCC(n4c(=O)n(CCN5CCOCC5)c5ccccc54)CC3)CC2)ccn1`, the concentration for half-maximal inhibition (IC50) was 30 µM in series [2] and above 30 µM in series [3].

On to `Nc1cc(CN2CCC(C(=O)N3CCC(n4c(=O)n(CC5CCCCC5)c5cc(F)ccc54)CC3)CC2)ccn1`, for which the IC50 in series [2] and in series [3] was above 30 µM throughout.

For the molecule `Nc1cc(CN2CCC(C(=O)N3CCC(n4c(=O)n(CC(F)(F)F)c5cc(F)ccc54)CC3)CC2)ccn1`, the IC50 in series [2] and in series [3] was above 30 µM each time. Further, the concentration at 6 h in series [4] amounted to 130 nM. In series [5], this molecule gave an area under the curve (AUC) of 1.2 µM·h.

In series [1], `CC(c1ccc(-c2ccc(F)cc2)cc1)n1c(=O)n(C2CCN(C(=O)C3CCN(Cc4ccnc(N)c4)CC3)CC2)c2ccccc21` (stereo unspecified) had a Ki of 0.42 µM.

Consider `CC(C)Cn1c(=O)n(C2CCN(C(=O)C3CCN(Cc4ccnc(N)c4)CC3)CC2)c2ccc(F)cc21`, for which the IC50 in series [2] and in series [3] was above 30 µM each time.

On to `Nc1cc(CN2CCC(C(=O)N3CCC(n4c(=O)n(CCCC(F)(F)F)c5cc(F)ccc54)CC3)CC2)ccn1`, for which the half-inhibitory concentration (IC50) in series [2] was 30 µM; in series [3], above 30 µM. For the same molecule, the concentration at 6 h in series [4] worked out at 510 nM. Moreover, the AUC in series [5] was 4.1 µM·h.

For the molecule `Nc1cc(CN2CCC(C(=O)N3CCC(n4c(=O)n(-c5cnccn5)c5cc(F)ccc54)CC3)CC2)ccn1`, the half-maximal inhibitory concentration (IC50) in series [2] and in series [3] was above 30 µM in each case. In series [1], this molecule came in with a Ki of 0.0005 µM. In addition, the concentration at 6 h in series [4] turned out to be 500 nM. The same molecule showed an exposure (AUC) in series [5] of 3.7 µM·h.

In the case of `Nc1cc(CN2CCC(C(=O)N3CCC(n4c(=O)n(CCN5CCOCC5)c5cc(F)ccc54)CC3)CC2)ccn1`, the 50% inhibitory concentration (IC50) in series [2] and in series [3] was above 30 µM each time. This molecule also gave a Ki in series [1] of 0.0023 µM.

On to `Nc1cc(CN2CCC(C(=O)N3CCC(n4c(=O)n(Cc5ccccc5)c5cc(F)ccc54)CC3)CC2)ccn1`, for which, in series [1], the Ki was 0.006 µM.
